Consider 13 compounds from patent US20260199382A1, “PHOSPHORAMIDATE MONOSACCARIDES, PHARMACEUTICAL COMPOSITIONS, AND DIAGNOSTIC AND THERAPEUTIC APPLICATIONS” (Surio Therapeutics Co., LTD., priority 2022, published 2026).

Structures are written as SMILES.

Common to all, as to format: cell-based
Common to all, as to details: 48 h; for AAM % / PBS %: 25 μM; for AAM %: mean fluorescence compared with Ac4ManNAz (AAM) positive control; for PBS %: mean fluorescence compared with PBS negative control; for Mean FL (×10^5): compound 25 μM, 37° C., DBCO-biotin then streptavidin-Cy5, mean fluorescence of live cells

The test system of one experiment is MDA-MB-231. Put plainly: Flow cytometry analysis of cell labeling (labeling efficiency of azido compounds) in MDA-MB-231. Here is the method: (§1) Cells (2.0×10^5 cells/mL, 2 mL) were seeded in a 6-well culture plate and attached at 37° C. overnight. After washed thrice with PBS, the cells were incubated with an azido compound provided herein (25 μM) at 37° C. for 48 h. After washed thrice with PBS, the cells were incubated with DBCO-biotin (50 μM) in 500 μL serum free DMEM at 37° C. for 1 h. The cells were washed thrice with PBS and then incubated with streptavidin-Cy5 (5 μg/mL) in 500 μL serum free DMEM at 37° C. for 1 h. The cells were washed thrice with PBS, followed by addition of 300 μL 1× trypsin/EDTA for digestion. The lifted cells were transferred to a 1.5 mL EP tube, centrifuge at 1,000 rpm for 3 min, and washed with PBS once. Finally, 500 μL PBS containing 4% PFA was added to the cell pellet to fix the cells. The cell suspension was transferred to a flow tube and mixed with 10 μL of a PI working solution (50 μg/mL) at room temperature for 30 min before being subjected to flow cytometry.
(§2) Flow cytometry was used to characterize the labeling efficiency of a compound provided herein. After cells were labeled with an azido group, DBCO-biotin was added to specifically react with the azido group. Avidin-Cy5 was added bind to the cell surface biotin for a flow cytometry analysis. Dead cells were stained with PI and excluded from the analysis. Results were presented as the mean fluorescence of live cells, compared with PBS as a negative control and Ac4ManNAz (AAM) as a positive control, Ac4ManNAz (AAM, CAS: 361154-30-5).
In general terms: In flow cytometry, cells or beads pass a laser one at a time.

Another experiment concerns A549 cells. The experiment in a line: Flow cytometry analysis of cell labeling (labeling efficiency of azido compounds) in A549 cells. As for the experimental part:
as §1, §2

The subject of the next experiment is OVCAR3. The experiment in a line: Flow cytometry analysis of cell labeling (labeling efficiency of azido compounds) in OVCAR3. As for the experimental part: as §1, §2

As for `CCCCOC(=O)[C@H](C)NP(=O)(OC[C@H]1OC(OC(C)=O)[C@@H](NC(=O)CN=[N+]=[N-])[C@@H](OC(C)=O)[C@@H]1OC(C)=O)Oc1ccccc1` (stereo partly drawn) [Compound A18, acetyl 2-(2-azidoacetylamino)-2-deoxy-3,4-di-O-acetyl-6-O—(((S)-1-butoxy-carbonylethylamino)(phenoxy)phosphoryl)-D-mannopyranoside], in the experiment on MDA-MB-231, the AAM % amounted to 99%, the PBS % was found to be 653% and the “Mean FL (×10^5)” value was 12.4 ×10^5.
For the compound `CC(=O)OC1OC(COP(=O)(N[C@H](C(=O)OC(C)c2ccccc2)C(C)C)Oc2ccccc2)C(OC(C)=O)C(OC(C)=O)C1NC(=O)CN=[N+]=[N-]` (stereo partly drawn) [Compound A5, 2-(2-Azidoacetylamino)-2-deoxy-3,4-di-O-acetyl-6-O-(((1S)-1-(1-phenylethoxy-carbonyl)-2-methylpropylamino)(phenoxy)phosphoryl)-D-mannopyranoside], in the experiment with A549 cells, the AAM % turned out to be 20%, the PBS % turned out to be 118% and the “Mean FL (×10^5)” value is reported as 3.55 ×10^5.
The corresponding values for `CC(=O)OC1OC(COP(=O)(NC(C)(C)C(=O)OC(C)c2ccccc2)Oc2ccccc2)C(OC(C)=O)C(OC(C)=O)C1NC(=O)CN=[N+]=[N-]` [Compound A4, 2-(2-Azidoacetylamino)-2-deoxy-3,4-di-O-acetyl-6-O-((1-methyl-1-(1-phenyl-ethoxycarbonyl)ethylamino)(phenoxy)phosphoryl)-D-mannopyranoside] are 51%, 311% and 9.32 ×10^5.
Consider `CC(=O)OC1O[C@H](COP(=O)(N[C@@H](C)C(=O)OCc2cccc3ncccc23)Oc2ccccc2)[C@@H](OC(C)=O)[C@H](OC(C)=O)[C@@H]1NC(=O)CN=[N+]=[N-]` (stereo partly drawn) [Compound A27, Acetyl 2-(2-azidoacetylamino)-2-deoxy-3,4-di-O-acetyl-6-O—(((S)-1-quinolin-5-ylmethoxycarbonylethylamino)(phenoxy)phosphoryl)-D-mannopyranoside], for which, in the experiment on OVCAR3, the AAM % was found to be 93.3%, the PBS % came out at 19231% and the “Mean FL (×10^5)” value is reported as 2.5 ×10^5. Further, in the experiment with MDA-MB-231, the AAM % turned out to be 109%, the PBS % stood at 716% and the “Mean FL (×10^5)” value is on record as 13.6 ×10^5.
With `CCCCCCOC(=O)[C@H](C)NP(=O)(OC[C@H]1OC(OC(C)=O)[C@@H](NC(=O)CN=[N+]=[N-])[C@@H](OC(C)=O)[C@@H]1OC(C)=O)Oc1ccccc1` (stereo partly drawn) [Compound A22, Acetyl 2-(2-azidoacetylamino)-2-deoxy-3,4-di-O-acetyl-6-O—(((S)-1-hexoxy-carbonylethylamino)(phenoxy)phosphoryl)-D-mannopyranoside], in the experiment with MDA-MB-231, the AAM % is 104%, the PBS % stood at 684% and the “Mean FL (×10^5)” value is on record as 13.0 ×10^5.
For `CC(=O)OC1O[C@H](COP(=O)(N[C@@H](C)C(=O)OC(C)C)Oc2ccccc2)[C@@H](OC(C)=O)[C@H](OC(C)=O)[C@@H]1NC(=O)CN=[N+]=[N-]` (stereo partly drawn) [Compound A1, acetyl 2-(2-azidoacetylamino)-2-deoxy-3,4-di-O-acetyl-6-O—(((S)-1-isopropoxy-carbonylethylamino)(phenoxy)phosphoryl)-D-mannopyranoside], in the experiment on MDA-MB-231, the AAM % is on record as 101%, the PBS % was determined as 663% and the “Mean FL (×10^5)” value is 12.6 ×10^5. In the experiment with A549 cells, the AAM % is listed as 89%, the PBS % is 540% and the “Mean FL (×10^5)” value is reported as 16.2 ×10^5.
For the compound `CCC(CC)COC(=O)[C@H](C)NP(=O)(OC[C@H]1OC(OC(C)=O)[C@@H](NC(=O)CN=[N+]=[N-])[C@@H](OC(C)=O)[C@@H]1OC(C)=O)Oc1ccccc1` (stereo partly drawn) [Compound A23, Acetyl 2-(2-azidoacetylamino)-2-deoxy-3,4-di-O-acetyl-6-O—(((S)-1-(2-ethyl-butoxy)carbonylethylamino)(phenoxy)phosphoryl)-D-mannopyranoside], in the experiment on MDA-MB-231, the AAM % turned out to be 98%, the PBS % is reported as 642% and the “Mean FL (×10^5)” value is listed as 12.2 ×10^5.
For `CC(=O)OC1OC(COP(=O)(N[C@@H](C)C(=O)OC(C)c2ccccc2)Oc2ccccc2)C(OC(C)=O)C(OC(C)=O)C1NC(=O)CN=[N+]=[N-]` (stereo partly drawn) [Compound A3], in the experiment on A549 cells, the AAM % came to 48%, the PBS % is listed as 294% and the “Mean FL (×10^5)” value is 8.82 ×10^5.
As to `CC(=O)OC1O[C@H](COP(=O)(N[C@@H](C)C(=O)OCc2ccnc3ccccc23)Oc2ccccc2)[C@@H](OC(C)=O)[C@H](OC(C)=O)[C@@H]1NC(=O)CN=[N+]=[N-]` (stereo partly drawn) [Compound A26, Acetyl 2-(2-azidoacetylamino)-2-deoxy-3,4-di-O-acetyl-6-O—(((S)-1-quinolin-4-ylmethoxycarbonylethylamino)(phenoxy)phosphoryl)-D-mannopyranoside], in the experiment with OVCAR3, the AAM % amounted to 89.6%, the PBS % came to 18462% and the “Mean FL (×10^5)” value is listed as 2.4 ×10^5. In the experiment with MDA-MB-231, the AAM % is listed as 144%, the PBS % is recorded as 947% and the “Mean FL (×10^5)” value was 18.0 ×10^5.
Regarding `CC(=O)OC1O[C@H](COP(=O)(N[C@@H](C)C(=O)OCc2ccncc2)Oc2ccccc2)[C@@H](OC(C)=O)[C@H](OC(C)=O)[C@@H]1NC(=O)CN=[N+]=[N-]` (stereo partly drawn) [Compound A25, Acetyl 2-(2-azidoacetylamino)-2-deoxy-3,4-di-O-acetyl-6-O—(((S)-1-pyridin-4-ylmethoxycarbonylethylamino)(phenoxy)phosphoryl)-D-mannopyranoside], in the experiment with OVCAR3, the AAM % was 26.9%, the PBS % is reported as 5538% and the “Mean FL (×10^5)” value is on record as 0.72 ×10^5.
As to `CC(=O)OC1O[C@H](COP(=O)(N[C@@H](C)C(=O)OCc2cccnc2)Oc2ccccc2)[C@@H](OC(C)=O)[C@H](OC(C)=O)[C@@H]1NC(=O)CN=[N+]=[N-]` (stereo partly drawn) [Compound A24, Acetyl 2-(2-azidoacetylamino)-2-deoxy-3,4-di-O-acetyl-6-O—(((S)-1-pyridin-3-ylmethoxycarbonylethylamino)(phenoxy)phosphoryl)-D-mannopyranoside], in the experiment with OVCAR3, the AAM % turned out to be 28.7%, the PBS % is 5923% and the “Mean FL (×10^5)” value was 0.77 ×10^5.
For `CC(=O)OC[C@H]1OC(OP(=O)(N[C@@H](C)C(=O)OC(C)c2ccccc2)Oc2ccccc2)[C@@H](NC(=O)CN=[N+]=[N-])[C@@H](OC(C)=O)[C@@H]1OC(C)=O` (stereo partly drawn) [Compound B1, (((1S)-1-(1-Phenylethoxy-carbonyl)ethylamino)(phenoxy)phosphoryl) 2-(2-azidoacetylamino)-2-deoxy-3,4,6-tri-O-acetyl-D-mannopyranoside], in the experiment with A549 cells, the AAM % was 42%, the PBS % stood at 256% and the “Mean FL (×10^5)” value was 7.67 ×10^5.
For `CC(=O)OC1O[C@H](COP(=O)(N[C@@H](C)C(=O)OC(C)(C)C)Oc2ccccc2)[C@@H](OC(C)=O)[C@H](OC(C)=O)[C@@H]1NC(=O)CN=[N+]=[N-]` (stereo partly drawn) [Compound A20, acetyl 2-(2-azidoacetylamino)-2-deoxy-3,4-di-O-acetyl-6-O—(((S)-1-tert-butoxy-carbonylethylamino)(phenoxy)phosphoryl)-D-mannopyranoside], in the experiment on MDA-MB-231, the AAM % was determined as 51%, the PBS % amounted to 338% and the “Mean FL (×10^5)” value is recorded as 6.43 ×10^5.
